Test results reported in US11326164B2, “Trimethylglycylglycerin compositions and their use in developing anti-cancer drugs and RNA vaccines” (WJWU & LYNN Institute for Stem Cell Research, priority 2019, dated 2022).

Tested on: Human lung epithelial cell line and lung cancer cell lines
Test: cell cultivation in TMGG (tolerance)
Type: cell-based
Conditions: cultivated in 0.01˜3.0M TMGG with all necessary supplements, up to 48 hours
Procedure: Human lung epithelial cell line and lung cancer cell lines were purchased from ATCC and cultivated according to manufacturer's protocols at 37° C. under 5% CO2. Cells were passaged at about 50%-70% confluence by exposing the cells to trypsin/EDTA for about 1 min and then rinsing two times in HBSS containing trypsin inhibitor. The detached cells were replated at 1:5 dilutions in fresh EpiLife medium with HKGS supplements. For miRNA transfection, pri-/pre-miR-302 prepared from Example 1 was dissolved in 0.01˜5.0M, preferably 0.1˜2.0M, of TMGG solution at a desired concentration up to 5 mg/ml and then directly applied to cell culture medium based on the miRNA amount needed. For example, to deliver […] pri-/pre-miR-302, we would need to add 40 μl of the TMGG-dissolved pri-/pre-miR-302 (at 5 mg/ml) into the cell culture medium and then mix well with the cells.

trimethylglycylglycerins [TMGG]
adverse effect on cultivated cells: not showing any adverse effect
